ChEMBL document CHEMBL4145648, “Swinhoeisterols from the South China Sea Sponge Theonella swinhoei” (J Nat Prod, 2018)
pIC50: −log10 of the molar value.

The compounds below were run against Histone acetyltransferase p300 (Homo sapiens, UniProt Q09472) (assay: Inhibition of human p300 expressed in Escherichia coli incubated for 15 mins followed by [3H]acetyl-CoA/histone addition).
Sequence of Histone acetyltransferase p300 (Q09472 whole entry): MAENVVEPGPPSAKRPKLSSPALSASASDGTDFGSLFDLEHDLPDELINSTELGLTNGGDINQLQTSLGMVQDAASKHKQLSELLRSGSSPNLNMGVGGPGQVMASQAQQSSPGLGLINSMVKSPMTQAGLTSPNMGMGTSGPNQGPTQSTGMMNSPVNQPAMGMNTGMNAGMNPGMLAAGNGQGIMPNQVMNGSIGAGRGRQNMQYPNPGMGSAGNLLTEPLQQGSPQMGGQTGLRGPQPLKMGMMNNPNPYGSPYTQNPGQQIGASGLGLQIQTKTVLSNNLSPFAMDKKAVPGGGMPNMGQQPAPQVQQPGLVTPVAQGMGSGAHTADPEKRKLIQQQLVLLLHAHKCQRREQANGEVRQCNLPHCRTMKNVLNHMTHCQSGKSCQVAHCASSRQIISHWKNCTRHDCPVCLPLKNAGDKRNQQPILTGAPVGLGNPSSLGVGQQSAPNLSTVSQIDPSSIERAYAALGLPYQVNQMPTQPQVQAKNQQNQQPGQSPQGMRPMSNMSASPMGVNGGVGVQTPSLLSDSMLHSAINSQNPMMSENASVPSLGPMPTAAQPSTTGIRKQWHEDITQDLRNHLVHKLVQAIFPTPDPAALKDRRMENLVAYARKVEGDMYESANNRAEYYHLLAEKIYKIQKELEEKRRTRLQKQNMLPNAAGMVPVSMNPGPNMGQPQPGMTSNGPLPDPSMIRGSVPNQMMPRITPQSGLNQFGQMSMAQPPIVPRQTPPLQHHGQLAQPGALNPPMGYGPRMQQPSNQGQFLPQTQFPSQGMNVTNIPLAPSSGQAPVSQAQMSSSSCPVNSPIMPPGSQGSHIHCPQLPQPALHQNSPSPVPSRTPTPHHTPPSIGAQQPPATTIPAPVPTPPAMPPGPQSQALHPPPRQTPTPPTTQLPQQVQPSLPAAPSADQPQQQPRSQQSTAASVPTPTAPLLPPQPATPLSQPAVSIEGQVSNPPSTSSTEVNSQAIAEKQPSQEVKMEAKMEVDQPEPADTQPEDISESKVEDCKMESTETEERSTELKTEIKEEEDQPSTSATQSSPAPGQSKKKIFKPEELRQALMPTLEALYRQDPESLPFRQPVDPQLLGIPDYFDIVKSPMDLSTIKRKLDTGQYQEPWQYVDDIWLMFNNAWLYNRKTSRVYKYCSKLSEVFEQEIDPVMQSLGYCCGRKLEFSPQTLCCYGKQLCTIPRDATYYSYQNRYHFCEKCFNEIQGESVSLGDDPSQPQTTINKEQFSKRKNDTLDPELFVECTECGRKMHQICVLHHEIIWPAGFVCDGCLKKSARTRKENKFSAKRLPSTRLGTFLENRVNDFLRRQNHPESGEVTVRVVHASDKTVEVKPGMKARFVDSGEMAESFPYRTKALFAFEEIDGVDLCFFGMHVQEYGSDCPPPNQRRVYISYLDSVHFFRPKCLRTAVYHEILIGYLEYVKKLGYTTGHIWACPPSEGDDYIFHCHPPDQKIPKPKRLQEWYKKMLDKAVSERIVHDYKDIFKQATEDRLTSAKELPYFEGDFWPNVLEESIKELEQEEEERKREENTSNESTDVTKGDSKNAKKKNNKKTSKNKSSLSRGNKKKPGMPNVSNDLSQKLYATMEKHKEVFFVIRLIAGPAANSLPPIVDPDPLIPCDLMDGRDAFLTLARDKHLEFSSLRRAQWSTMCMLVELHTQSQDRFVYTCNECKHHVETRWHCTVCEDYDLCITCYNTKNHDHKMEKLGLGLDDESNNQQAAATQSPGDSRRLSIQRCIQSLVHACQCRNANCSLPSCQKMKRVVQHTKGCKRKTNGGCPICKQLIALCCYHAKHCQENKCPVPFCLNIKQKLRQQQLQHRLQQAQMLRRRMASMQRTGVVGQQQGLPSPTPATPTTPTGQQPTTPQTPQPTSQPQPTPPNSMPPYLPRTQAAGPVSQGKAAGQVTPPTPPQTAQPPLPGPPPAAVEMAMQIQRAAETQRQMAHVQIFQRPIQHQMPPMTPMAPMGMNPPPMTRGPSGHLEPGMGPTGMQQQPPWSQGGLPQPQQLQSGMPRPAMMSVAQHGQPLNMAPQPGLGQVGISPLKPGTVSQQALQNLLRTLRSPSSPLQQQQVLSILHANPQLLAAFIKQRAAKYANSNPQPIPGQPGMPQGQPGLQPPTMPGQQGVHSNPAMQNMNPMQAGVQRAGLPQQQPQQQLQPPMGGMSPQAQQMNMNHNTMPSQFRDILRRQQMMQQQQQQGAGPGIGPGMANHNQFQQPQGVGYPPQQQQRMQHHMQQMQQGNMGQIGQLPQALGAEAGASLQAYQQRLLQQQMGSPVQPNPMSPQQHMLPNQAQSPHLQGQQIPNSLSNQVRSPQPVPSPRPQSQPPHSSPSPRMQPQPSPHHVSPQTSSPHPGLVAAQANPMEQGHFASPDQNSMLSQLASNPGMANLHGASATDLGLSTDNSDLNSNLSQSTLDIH
In the case of `C=C1[C@@H](O)CC[C@]2(C)C3=C4[C@@H](C[C@@H]12)C(=O)CC[C@H]([C@H](C)CC[C@@H](C)C(C)C)[C@@]4(C)CC3`, the pIC50 was 5.48. With `C=C1[C@@H](O)CC[C@]2(C)[C@H]3CC[C@@]4(C)[C@]35O[C@]4([C@H](C)CC[C@@H](C)C(C)C)CCC(=O)[C@@H]5C[C@@H]12` the pIC50 was < 5.00. `C=C(C)[C@H](CC=C(C)C)C[C@]12C[C@H](CC=C(C)C)C(C)(C)[C@](CC=C(C)C)(C(=O)C(C(=O)c3ccc(O)c(O)c3)=C1O)C2=O` was tested, and the pIC50 was 6.30. In the case of `C=C1[C@@H](O)CC[C@@]2(C)[C@H]1C[C@]1(O)C(=O)CC[C@H]([C@H](C)CC[C@@H](C)C(C)C)[C@@]3(C)CC[C@]24O[C@@]413`, the pIC50 was < 5.00. With `C=C1[C@@H](O)CC[C@@]2(C)[C@H]1CC1=C3[C@@H]2CC[C@]3(C)[C@@H]([C@H](C)CC[C@@H](C)C(C)C)CCC1=O` the pIC50 was < 5.00. With `C=C1[C@@H](O)CC[C@@]2(C)[C@H]1C[C@H]1C(=O)CC[C@H]([C@H](C)CC[C@@H](C)C(C)C)[C@@]3(C)CC[C@]24O[C@]143` the pIC50 was 5.06.
